ChEMBL document CHEMBL4715876 (J Med Chem, 2020)
≈ marks a conversion by molar mass, not a printed value. One block for each compound: values may come before it.

What was measured:
[1] = Tmax in BALB/C mouse at 10 mg/kg, po measured upto 24 hrs by LC-MS analysis; format: ADME, organism-based; details: in vivo
[2] = Cmax in BALB/C mouse at 10 mg/kg,po measured upto 24 hrs by LC-MS analysis; format: ADME, organism-based; design: route oral, dose 10 mg/kg, time <= 24; details: in vivo
[3] = AUClast in BALB/C mouse at 10 mg/kg,po measured upto 24 hrs by LC-MS analysis; format: ADME, organism-based; design: route oral, dose 10 mg/kg, time <= 24; details: in vivo
[4] = Oral bioavailability in BALB/C mouse at 10 mg/kg measured upto 24 hrs by LC-MS analysis; format: ADME, organism-based; details: in vivo
[5] = Tmax in BALB/C mouse at 1 mg/kg, iv measured upto 24 hrs by LC-MS analysis; format: ADME, organism-based; details: in vivo
[6] = Cmax in BALB/C mouse at 1 mg/kg, iv measured upto 24 hrs by LC-MS analysis; format: ADME, organism-based; design: route intravenous, dose 1 mg/kg, time <= 24; details: in vivo
[7] = AUClast in BALB/C mouse at 1 mg/kg, iv measured upto 24 hrs by LC-MS analysis; format: ADME, organism-based; design: route intravenous, dose 1 mg/kg, time <= 24; details: in vivo
[8] = Volume of distribution at steady state in BALB/C mouse at 1 mg/kg, iv measured upto 24 hrs by LC-MS analysis; format: ADME, organism-based; details: in vivo, read-out: Vdss
[9] = Lipophilicity, log D of compound at pH 7.4; format: physicochemical; details: buffer
[10] = Solubility of the compound; format: physicochemical
[11] = Tmax in Sprague-Dawley rat at 10 mg/kg, po measured upto 24 hrs by LC-MS/MS analysis; format: ADME, organism-based; details: in vivo
[12] = Cmax in Sprague-Dawley rat at 10 mg/kg, po measured upto 24 hrs by LC-MS/MS analysis; format: ADME, organism-based; design: route oral, dose 10 mg/kg, time <=24; details: in vivo
[13] = AUClast in Sprague-Dawley rat at 10 mg/kg, po measured upto 24 hrs by LC-MS/MS analysis; format: ADME, organism-based; design: route oral, dose 10 mg/kg, time <=24; details: in vivo
[14] = Oral bioavailability in Sprague-Dawley rat at 10 mg/kg measured upto 24 hrs by LC-MS/MS analysis; format: ADME, organism-based; details: in vivo
[15] = Drug uptake in CB.17 SCID mouse tumor xenografted with OCI-LY10 cells at 3 mg/kg, po once daily for 24 days; format: ADME, organism-based, Neoplasm; details: time 24 day, read-out: Drug uptake
[16] = Drug uptake in CB.17 SCID mouse tumor xenografted with OCI-LY10 cells at 1 mg/kg, po once daily for 24 days; format: ADME, organism-based, Neoplasm; details: time 24 day, read-out: Drug uptake
[17] = Drug uptake in CB.17 SCID mouse tumor xenografted with OCI-LY10 cells at 10 mg/kg, po once daily for 24 days; format: ADME, organism-based, Neoplasm; details: time 24 day, read-out: Drug uptake
[18] = Drug uptake in CB.17 SCID mouse tumor xenografted with OCI-LY10 cells at 30 mg/kg, po once daily for 24 days; format: ADME, organism-based, Neoplasm; details: time 24 day, read-out: Drug uptake
[19] = Plasma concentration in CB.17 SCID mouse xenografted with OCI-LY10 cells at 3 mg/kg, po once daily for 24 days; format: ADME, organism-based; details: time 24 day
[20] = Plasma concentration in CB.17 SCID mouse xenografted with OCI-LY10 cells at 1 mg/kg, po once daily for 24 days; format: ADME, organism-based; details: time 24 day
[21] = Plasma concentration in CB.17 SCID mouse xenografted with OCI-LY10 cells at 10 mg/kg, po once daily for 24 days; format: ADME, organism-based; details: time 24 day
[22] = Plasma concentration in CB.17 SCID mouse xenografted with OCI-LY10 cells at 30 mg/kg, po once daily for 24 days; format: ADME, organism-based; details: time 24 day
[23] = Drug uptake in CB.17 SCID mouse tumor xenografted with TMD-8 cells at 3 mg/kg, po once daily for 19 days; format: ADME, organism-based, Neoplasm; details: time 19 day, read-out: Drug uptake
[24] = Drug uptake in CB.17 SCID mouse tumor xenografted with TMD-8 cells at 1 mg/kg, po once daily for 19 days; format: ADME, organism-based, Neoplasm; details: time 19 day, read-out: Drug uptake
[25] = Drug uptake in CB.17 SCID mouse tumor xenografted with TMD-8 cells at 10 mg/kg, po once daily for 19 days; format: ADME, organism-based, Neoplasm; details: time 19 day, read-out: Drug uptake
[26] = Drug uptake in CB.17 SCID mouse xenografted with TMD-8 cells tumor at 30 mg/kg, po once daily for 19 days; format: ADME, organism-based, Neoplasm; details: time 19 day, read-out: Drug uptake
[27] = Plasma concentration in CB.17 SCID mouse xenografted with TMD-8 cells at 3 mg/kg, po once daily for 19 days; format: ADME, organism-based; details: time 19 day
[28] = Plasma concentration in CB.17 SCID mouse xenografted with TMD-8 cells at 1 mg/kg, po once daily for 19 days; format: ADME, organism-based; details: time 19 day
[29] = Plasma concentration in CB.17 SCID mouse xenografted with TMD-8 cells at 10 mg/kg, po once daily for 19 days; format: ADME, organism-based; details: time 19 day
[30] = Plasma concentration in CB.17 SCID mouse xenografted with TMD-8 cells at 30 mg/kg, po once daily for 19 days; format: ADME, organism-based; details: time 19 day
[31] = Drug uptake in CB.17 SCID mouse tumor xenografted with SUDHL-6 cells assessed as effect on body weight at 5 mg/kg, po once daily for 15 days; format: ADME, organism-based, Neoplasm; details: time 15 day, read-out: Drug uptake
[32] = Plasma concentration in CB.17 SCID mouse tumor xenografted with SUDHL-6 cells assessed as effect on body weight at 5 mg/kg, po once daily for 15 days; format: ADME, organism-based; details: time 15 day
[33] = Free drug concentration in CB.17 SCID mouse xenografted with OCI-LY10 cells at 30 mg/kg, po once daily for 24 days; format: ADME, organism-based; details: in vivo, 576 h, time 24 day
[34] = Free drug concentration in CB.17 SCID mouse xenografted with TMD-8 cells at 30 mg/kg, po once daily for 19 days; format: ADME, organism-based; details: in vivo, 456 h, time 19 day
[35] = Volume of distribution at steady state in Beagle dog at 1 mg/kg, iv measured upto 24 hrs by LC-MS/MS analysis; format: ADME, organism-based, Canis lupus familiaris; details: beagle, in vivo, read-out: Vdss
[36] = Tmax in Sprague-Dawley rat at 1 mg/kg, iv measured upto 24 hrs by LC-MS/MS analysis; format: ADME, organism-based; details: in vivo
[37] = Cmax in Sprague-Dawley rat at 1 mg/kg, iv measured upto 24 hrs by LC-MS/MS analysis; format: ADME, organism-based; design: route intravenous, dose 1 mg/kg, time <=24; details: in vivo
[38] = AUClast in Sprague-Dawley rat at 1 mg/kg, iv measured upto 24 hrs by LC-MS/MS analysis; format: ADME, organism-based; design: route intravenous, dose 1 mg/kg, time <=24; details: in vivo
[39] = Volume of distribution at steady state in Sprague-Dawley rat at 1 mg/kg, iv measured upto 24 hrs by LC-MS/MS analysis; format: ADME, organism-based; details: in vivo, read-out: Vdss

Tmax [1]: 30 min
Cmax [2]: 4700 nM
AUC(0-t) at 24 h [3]: 12 µM·h
bioavailability [4]: 60%
Tmax [5]: 4.8 min
Cmax [6]: 1100 nM
AUC(0-t) at 24 h [7]: 2 µM·h
Vd [8]: 1.9 L/kg
logD [9]: 1.88
solubility [10]: 368 µM (≈ 166 µg/mL)
SMILES: C[C@H](Nc1nc(N)nc(N)c1C#N)c1cc(=O)n2cc(F)ccc2c1-c1cc(F)cc(F)c1

Tmax [1]: 60 min
Cmax [2]: 7500 nM
AUC(0-t) at 24 h [3]: 22 µM·h
bioavailability [4]: 39%
Tmax [5]: 4.8 min
Cmax [6]: 2300 nM
AUC(0-t) at 24 h [7]: 5.7 µM·h
Vd [8]: 0.7 L/kg
logD [9]: 2.38
solubility [10]: 68.5 µM (≈ 34.9 µg/mL)
Tmax [11]: 120 min
Cmax [12]: 4800 nM
AUC(0-t) at 24 h [13]: 36 µM·h
bioavailability [14]: 33%
concentration at 576 h [15]: 380 nM
concentration at 576 h [16]: 130 nM
concentration at 576 h [17]: 960 nM
concentration at 576 h [18]: 3250 nM
concentration at 576 h [19]: 710 nM
concentration at 576 h [20]: 180 nM
concentration at 576 h [21]: 1720 nM
concentration at 576 h [22]: 5220 nM
concentration at 456 h [23]: 630 nM
concentration at 456 h [24]: 170 nM
concentration at 456 h [25]: 1650 nM
concentration at 456 h [26]: 4080 nM
concentration at 456 h [27]: 700 nM
concentration at 456 h [28]: 210 nM
concentration at 456 h [29]: 2670 nM
concentration at 456 h [30]: 5500 nM
Drug uptake(free) [33]: 157.6 nM
Drug uptake(free) [34]: 166.1 nM
Vd [35]: 0.4 L/kg
Tmax [36]: 4.8 min
Cmax [37]: 1700 nM
AUC(0-t) at 24 h [38]: 11 µM·h
Vd [39]: 1 L/kg
SMILES: C[C@H](Nc1nc(N)nc(N)c1C#N)c1c(-c2ccccc2)c(=O)n2cc(F)ccc2c1-c1ccc(F)cc1
concentration at 360 h [31]: 200 nM
concentration at 360 h [32]: 380 nM
